# T1: OAT3 (hOAT3) (Homo sapiens, UniProt Q8TCC7)
# T1 construct: gene SLC22A8; full-length human OAT3 with fused Myc tag, stably expressed in COS-7 cells; ~80 kDa on blot
# T1 sequence (Q8TCC7 1-542): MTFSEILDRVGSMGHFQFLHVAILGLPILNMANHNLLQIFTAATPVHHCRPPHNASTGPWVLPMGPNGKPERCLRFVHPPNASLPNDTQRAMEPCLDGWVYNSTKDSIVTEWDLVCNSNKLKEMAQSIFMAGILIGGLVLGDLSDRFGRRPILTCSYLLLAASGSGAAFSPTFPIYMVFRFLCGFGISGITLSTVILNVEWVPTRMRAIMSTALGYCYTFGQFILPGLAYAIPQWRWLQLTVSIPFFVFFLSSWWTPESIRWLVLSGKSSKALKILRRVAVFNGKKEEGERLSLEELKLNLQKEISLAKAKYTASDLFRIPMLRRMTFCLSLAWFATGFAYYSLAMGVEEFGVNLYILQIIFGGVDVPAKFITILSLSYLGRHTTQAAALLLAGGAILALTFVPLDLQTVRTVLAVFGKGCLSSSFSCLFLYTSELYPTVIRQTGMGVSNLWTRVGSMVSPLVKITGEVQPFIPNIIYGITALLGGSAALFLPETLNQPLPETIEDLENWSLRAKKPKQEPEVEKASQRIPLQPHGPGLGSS
# B1: OAT3 (hOAT3) (Homo sapiens) (protein)
# chain: T1 sequence (Q8TCC7 1-542)
# notes: full-length human OAT3 with fused Myc tag, stably expressed in COS-7 cells; ~80 kDa on blot
# What was measured:
# 20S proteasome = test system: T2, 20S proteasome; assay: […] activity with SUC-LLVY-AMC in lysate after […] h treatment of intact COS-7 cells; assay type: cell-based; details: 37 °C; reversible; chymotrypsin-like activity
# T2 construct: gene PSMB5; endogenous 20S proteasome of hOAT3-expressing COS-7 cells; activity read in lysate of drug-treated cells with SUC-LLVY-AMC (chymotrypsin-like, beta5); complex of 28 subunits
# OAT3 (hOAT3) = biological target: T1, OAT3 (hOAT3); assay: cis-inhibition of [3H]estrone sulfate uptake in hOAT3-expressing COS-7 cells, […] min; assay type: cell-based
# [1] = substrate: C[C@]12CC[C@@H]3c4ccc(OS(=O)(=O)O)cc4CC[C@H]3[C@@H]1CCC2=O; assay: cells, lysate or membranes; assay type: cell-based, Homo sapiens; details: untreated cells; PBS/Ca2+/Mg2+; 0.3-10 µM; labelled compound (3H); parental-cell uptake subtracted
molecule,measurement,setting,value
CC(C)C[C@H](NC(=O)[C@@H](NC(=O)c1cccc(-c2ccccc2)n1)[C@@H](C)O)B(O)O [delanzomib],% inhibition at 30 nM,20S proteasome,61 (95% CI: 57 to 65)
CC(C)C[C@H](NC(=O)CNC(=O)c1cc(Cl)ccc1Cl)B(O)O [ixazomib],% inhibition at 30 nM,20S proteasome,50 (95% CI: 46 to 54)
CCCN(CCC)S(=O)(=O)c1ccc(C(=O)O)cc1 [probenecid],inhibition at 5 µM,OAT3 (hOAT3),40%
B1,Km,[1],4.2 ± 0.3 µM

# Reference: publication PMC7997269, “Oral Proteasomal Inhibitors Ixazomib, Oprozomib, and Delanzomib Upregulate the Function of Organic Anion Transporter 3 (OAT3): Implications in OAT3-Mediated Drug-Drug Interactions” (Pharmaceutics, 2021)
